Test results as given in ChEMBL document CHEMBL4350965 (J Med Chem, 2019).

Assays:
[1] = Inhibition of PI3Kgamma in […] RAW264.7 cells assessed as reduction in C5a-stimulated AKT phosphorylation at Ser473 residue preincubated for 30 mins followed by C5a-stimulation and measured after 5 mins; format: cell-based
[2] = Stability in rat liver microsomes assessed as parent compound remaining at 1 uM measured after 30 mins in presence of NADPH generating system
[3] = molecular target: T1, Phosphatidylinositol 4,5-bisphosphate 3-kinase catalytic subunit delta isoform (Homo sapiens, UniProt O00329); test: Inhibition of PI3Kdelta in human Ramos cells assessed as reduction in antihuman IgM-stimulated AKT phosphorylation at Ser473 residue preincubated for 60 mins followed by antihuman IgM stimulation and measured after 15 mins; format: cell-based
T1 sequence (O00329 whole entry): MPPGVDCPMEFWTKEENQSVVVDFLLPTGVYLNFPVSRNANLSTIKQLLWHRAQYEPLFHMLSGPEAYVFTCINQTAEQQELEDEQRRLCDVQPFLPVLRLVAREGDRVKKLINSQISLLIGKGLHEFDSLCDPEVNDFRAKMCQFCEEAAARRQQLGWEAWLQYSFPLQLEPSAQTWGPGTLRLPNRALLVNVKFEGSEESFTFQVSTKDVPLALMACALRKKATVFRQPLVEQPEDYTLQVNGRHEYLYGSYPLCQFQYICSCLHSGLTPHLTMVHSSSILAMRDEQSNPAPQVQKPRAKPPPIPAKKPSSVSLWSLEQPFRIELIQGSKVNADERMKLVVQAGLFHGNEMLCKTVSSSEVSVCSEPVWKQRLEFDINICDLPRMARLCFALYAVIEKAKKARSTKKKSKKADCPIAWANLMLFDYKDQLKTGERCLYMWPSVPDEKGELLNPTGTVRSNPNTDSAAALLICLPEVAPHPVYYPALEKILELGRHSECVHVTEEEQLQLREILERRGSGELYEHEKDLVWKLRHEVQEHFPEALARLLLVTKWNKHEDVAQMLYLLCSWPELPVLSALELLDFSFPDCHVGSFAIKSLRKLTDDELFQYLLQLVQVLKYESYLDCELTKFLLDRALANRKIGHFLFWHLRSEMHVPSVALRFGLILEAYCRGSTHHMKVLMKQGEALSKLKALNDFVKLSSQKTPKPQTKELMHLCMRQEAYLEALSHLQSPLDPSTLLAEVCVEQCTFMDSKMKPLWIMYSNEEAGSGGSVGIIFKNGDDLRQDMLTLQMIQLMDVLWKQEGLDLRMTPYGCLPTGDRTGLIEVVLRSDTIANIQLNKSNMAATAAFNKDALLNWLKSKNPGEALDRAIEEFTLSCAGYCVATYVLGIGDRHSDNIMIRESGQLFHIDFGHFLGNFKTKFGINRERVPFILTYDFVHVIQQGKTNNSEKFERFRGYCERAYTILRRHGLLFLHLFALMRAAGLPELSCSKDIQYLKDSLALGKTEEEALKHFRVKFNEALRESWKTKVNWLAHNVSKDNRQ

[4] = molecular target: T2, PI3K p110 beta/p85 alpha (Homo sapiens, UniProt P42338); test: Inhibition of N-terminal His6-tagged recombinant full length human p110beta/untagged recombinant full length human p85alpha expressed in baculovirus infected Sf21 insect cells at 1 uM using PIP2 as substrate measured after 80 mins by transcreener fluorescence polarization assay relative to control
T2 sequence (P27986 whole entry): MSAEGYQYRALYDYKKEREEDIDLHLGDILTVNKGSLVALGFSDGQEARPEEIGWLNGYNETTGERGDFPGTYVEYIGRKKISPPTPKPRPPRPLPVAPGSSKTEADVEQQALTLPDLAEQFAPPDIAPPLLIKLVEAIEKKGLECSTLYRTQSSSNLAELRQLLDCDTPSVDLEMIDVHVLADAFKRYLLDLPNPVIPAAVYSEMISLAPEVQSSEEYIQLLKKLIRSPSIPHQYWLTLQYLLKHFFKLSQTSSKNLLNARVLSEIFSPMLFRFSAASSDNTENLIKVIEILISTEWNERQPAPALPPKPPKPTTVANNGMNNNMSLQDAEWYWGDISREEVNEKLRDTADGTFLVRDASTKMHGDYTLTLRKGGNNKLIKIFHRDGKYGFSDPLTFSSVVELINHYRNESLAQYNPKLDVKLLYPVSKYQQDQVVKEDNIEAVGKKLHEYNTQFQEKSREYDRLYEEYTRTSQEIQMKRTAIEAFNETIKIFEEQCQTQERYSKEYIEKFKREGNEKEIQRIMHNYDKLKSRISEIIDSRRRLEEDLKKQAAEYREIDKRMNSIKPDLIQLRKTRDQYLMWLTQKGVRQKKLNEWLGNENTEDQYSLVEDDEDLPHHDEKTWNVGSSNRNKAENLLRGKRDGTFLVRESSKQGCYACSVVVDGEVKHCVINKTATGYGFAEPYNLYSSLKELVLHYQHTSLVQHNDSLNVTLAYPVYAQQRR
T2 sequence (P42338 whole entry): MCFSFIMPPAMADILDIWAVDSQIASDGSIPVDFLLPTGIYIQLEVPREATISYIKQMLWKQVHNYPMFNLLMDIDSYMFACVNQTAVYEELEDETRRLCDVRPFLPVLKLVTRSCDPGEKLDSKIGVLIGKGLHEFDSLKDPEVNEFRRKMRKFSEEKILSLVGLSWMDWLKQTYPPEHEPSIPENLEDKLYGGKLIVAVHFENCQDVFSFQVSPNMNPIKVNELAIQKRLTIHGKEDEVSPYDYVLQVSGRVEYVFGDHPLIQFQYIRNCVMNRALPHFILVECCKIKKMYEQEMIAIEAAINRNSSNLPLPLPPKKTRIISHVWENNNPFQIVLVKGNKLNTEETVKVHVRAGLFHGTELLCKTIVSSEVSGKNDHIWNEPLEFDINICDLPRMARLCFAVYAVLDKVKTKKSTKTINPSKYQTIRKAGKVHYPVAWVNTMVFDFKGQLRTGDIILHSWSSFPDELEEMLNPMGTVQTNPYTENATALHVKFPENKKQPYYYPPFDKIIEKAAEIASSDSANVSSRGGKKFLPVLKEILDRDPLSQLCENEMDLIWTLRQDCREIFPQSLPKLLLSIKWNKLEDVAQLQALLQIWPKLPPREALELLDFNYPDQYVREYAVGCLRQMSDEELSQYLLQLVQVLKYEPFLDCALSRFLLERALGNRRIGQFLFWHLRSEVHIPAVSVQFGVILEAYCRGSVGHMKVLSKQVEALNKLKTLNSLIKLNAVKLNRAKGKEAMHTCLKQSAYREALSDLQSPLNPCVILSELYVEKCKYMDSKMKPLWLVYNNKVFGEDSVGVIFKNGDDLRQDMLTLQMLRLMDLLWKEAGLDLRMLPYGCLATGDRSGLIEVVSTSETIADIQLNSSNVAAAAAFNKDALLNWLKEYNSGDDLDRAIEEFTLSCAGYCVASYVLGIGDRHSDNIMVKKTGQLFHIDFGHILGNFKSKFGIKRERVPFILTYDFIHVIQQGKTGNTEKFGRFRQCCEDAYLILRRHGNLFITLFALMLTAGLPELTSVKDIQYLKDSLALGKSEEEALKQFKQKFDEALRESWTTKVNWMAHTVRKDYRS

[5] = molecular target: PI3-kinase p110-alpha/p85-alpha (Homo sapiens, UniProt P42336); test: Inhibition of recombinant human full-length N-terminal His-tagged PI3K p110alpha/p85alpha expressed in baculovirus expression system at 1 uM using PIP2 as substrate measured after 80 mins by transcreener fluorescence polarization assay relative to control
Chain of PI3-kinase p110-alpha/p85-alpha (P27986 whole entry): as the sequence (P27986 whole entry) above
Chain of PI3-kinase p110-alpha/p85-alpha (P42336 whole entry): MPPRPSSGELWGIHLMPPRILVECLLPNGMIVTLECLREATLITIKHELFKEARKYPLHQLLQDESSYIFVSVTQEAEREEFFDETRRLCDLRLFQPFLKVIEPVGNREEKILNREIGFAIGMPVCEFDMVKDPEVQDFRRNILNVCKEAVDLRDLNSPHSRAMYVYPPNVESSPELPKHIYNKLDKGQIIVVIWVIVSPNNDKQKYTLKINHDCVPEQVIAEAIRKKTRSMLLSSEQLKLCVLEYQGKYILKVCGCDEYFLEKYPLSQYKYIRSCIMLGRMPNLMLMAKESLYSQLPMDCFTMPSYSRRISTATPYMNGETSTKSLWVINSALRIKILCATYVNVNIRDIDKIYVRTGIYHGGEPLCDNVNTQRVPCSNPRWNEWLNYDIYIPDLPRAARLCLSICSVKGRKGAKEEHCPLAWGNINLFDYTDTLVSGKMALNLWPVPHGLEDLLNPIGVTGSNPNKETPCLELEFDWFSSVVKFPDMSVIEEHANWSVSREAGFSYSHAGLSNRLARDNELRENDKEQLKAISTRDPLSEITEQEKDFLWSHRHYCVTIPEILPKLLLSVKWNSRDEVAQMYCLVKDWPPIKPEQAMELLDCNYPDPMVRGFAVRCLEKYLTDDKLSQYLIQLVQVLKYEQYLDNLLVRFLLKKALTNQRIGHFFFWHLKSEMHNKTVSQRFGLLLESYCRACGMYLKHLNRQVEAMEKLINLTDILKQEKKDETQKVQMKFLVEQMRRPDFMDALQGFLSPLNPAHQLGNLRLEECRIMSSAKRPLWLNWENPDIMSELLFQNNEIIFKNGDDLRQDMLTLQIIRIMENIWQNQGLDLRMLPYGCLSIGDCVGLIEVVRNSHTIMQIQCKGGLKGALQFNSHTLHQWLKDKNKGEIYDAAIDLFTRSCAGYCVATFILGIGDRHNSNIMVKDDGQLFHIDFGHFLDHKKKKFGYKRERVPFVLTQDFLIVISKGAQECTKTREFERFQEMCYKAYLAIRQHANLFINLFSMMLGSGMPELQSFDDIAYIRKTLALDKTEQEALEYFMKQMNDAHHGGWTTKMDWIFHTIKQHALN

[6] = Stability in human liver microsomes assessed as parent compound remaining at 1 uM measured after 30 mins in presence of NADPH generating system
[7] = molecular target: T2, PI3K p110 beta/p85 alpha; test: Inhibition of N-terminal His6-tagged recombinant full length human p110beta/untagged recombinant full length human p85alpha expressed in baculovirus infected Sf21 insect cells using PIP2 as substrate measured after 80 mins by transcreener fluorescence polarization assay
[8] = molecular target: Phosphatidylinositol 4,5-bisphosphate 3-kinase catalytic subunit gamma isoform (Homo sapiens, UniProt P48736)
Chain of Phosphatidylinositol 4,5-bisphosphate 3-kinase catalytic subunit gamma isoform (P48736 whole entry, canonical isoform): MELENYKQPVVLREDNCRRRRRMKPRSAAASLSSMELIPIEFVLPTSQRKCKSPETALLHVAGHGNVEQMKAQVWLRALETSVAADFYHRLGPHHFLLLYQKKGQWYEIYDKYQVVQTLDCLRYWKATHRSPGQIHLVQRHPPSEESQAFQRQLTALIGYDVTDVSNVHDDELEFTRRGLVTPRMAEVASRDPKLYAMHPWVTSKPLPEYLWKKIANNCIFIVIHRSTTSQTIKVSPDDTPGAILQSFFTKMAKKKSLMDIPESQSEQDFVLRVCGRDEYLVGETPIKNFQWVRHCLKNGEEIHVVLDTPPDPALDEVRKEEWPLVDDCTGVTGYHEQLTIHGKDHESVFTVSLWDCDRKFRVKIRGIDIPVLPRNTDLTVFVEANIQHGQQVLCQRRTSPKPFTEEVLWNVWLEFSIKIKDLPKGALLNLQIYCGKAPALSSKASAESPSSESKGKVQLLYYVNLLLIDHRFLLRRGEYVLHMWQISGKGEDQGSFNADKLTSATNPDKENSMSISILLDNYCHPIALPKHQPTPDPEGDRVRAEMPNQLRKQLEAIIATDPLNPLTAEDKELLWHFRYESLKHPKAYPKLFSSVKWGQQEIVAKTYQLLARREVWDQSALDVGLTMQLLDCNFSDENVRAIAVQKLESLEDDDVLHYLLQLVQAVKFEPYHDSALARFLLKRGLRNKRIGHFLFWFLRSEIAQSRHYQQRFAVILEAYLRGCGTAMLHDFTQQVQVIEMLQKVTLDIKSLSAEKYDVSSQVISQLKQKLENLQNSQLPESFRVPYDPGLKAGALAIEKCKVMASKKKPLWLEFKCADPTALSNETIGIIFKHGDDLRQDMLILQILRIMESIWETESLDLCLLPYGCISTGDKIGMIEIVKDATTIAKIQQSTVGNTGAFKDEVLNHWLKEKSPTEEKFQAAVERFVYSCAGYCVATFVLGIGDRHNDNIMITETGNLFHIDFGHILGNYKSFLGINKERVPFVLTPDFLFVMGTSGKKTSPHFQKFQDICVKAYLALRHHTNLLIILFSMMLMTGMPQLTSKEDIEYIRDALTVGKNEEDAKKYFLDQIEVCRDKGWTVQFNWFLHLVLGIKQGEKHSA
Description: Inhibition of recombinant human full-length His-tagged PI3K p110gamma expressed in baculovirus expression system using PIP2 as substrate measured after 80 mins by transcreener fluorescence polarization assay

[9] = tested on: liver microsomes (Homo sapiens / Mus musculus); test: Drug metabolism in human and mouse liver microsomes assessed as oxidation of pyrrolidine linker at 1 uM measured after 30 mins in presence of NADPH-generating system; settings: 0.5 h
[10] = Drug metabolism in human liver microsomes assessed as oxidation of pyrrolidine linker at 1 uM measured after 30 mins in presence of NADPH-generating system; format: ADME, Microsome; settings: 0.5 h

Row | Compound | IC50 [1] [nM] | remaining at 0.5 h, 1 µM [2] [%] | IC50 [3] [nM] | inhibition at 1 µM [4] [%] | remaining at 0.5 h, 1 µM [6] [%] | other results
1 | O=c1c2c(Cl)ccn2nc([C@@H]2C[C@H](F)CN2c2ncnc3[nH]cnc23)n1-c1ccccc1 | 20 | 43.8 | 1 | – | – | –
2 | C#Cc1cnc(N)nc1N1CC[C@H]1c1nn2ccc(Cl)c2c(=O)n1-c1ccccc1 | – | – | – | 22.7 | – | –
3 | O=c1c2c(Cl)ccn2nc([C@@H]2CCCN2c2ncnc3[nH]cnc23)n1-c1cccc(F)c1 | 8 | 34.6 | – | 54.8 | 64.3 | –
4 | Nc1ncc(C(=O)C(F)(F)F)c(N2CC[C@H]2c2nn3ccc(Cl)c3c(=O)n2-c2ccccc2)n1 | – | – | – | – | – | IC50 [7]: > 1000 nM
5 | Nc1ncc(Cl)c(N2CC[C@H]2c2nn3ccc(Cl)c3c(=O)n2-c2ccccc2)n1 | – | – | – | 22.9 | – | –
6 | CC[C@H](Nc1ncnc2[nH]cnc12)c1nc2cccc(F)c2c(=O)n1-c1ccccc1 [IDELALISIB] | 337 | – | – | – | – | –

Further lines, with some results ahead:

Row | IC50 [1] [nM] | remaining at 0.5 h, 1 µM [2] [%] | IC50 [3] [nM] | inhibition at 1 µM [4] [%] | remaining at 0.5 h, 1 µM [6] [%] | Compound | other results
7 | 22 | 23.5 | 3 | – | – | N#Cc1cnc(N)nc1N1CCC[C@H]1c1nn2ccc(Cl)c2c(=O)n1-c1ccccc1 | –
8 | 142 | 77.2 | 21 | 45.9 | 83 | CC(=O)c1c[nH]c2ncnc(N3CC[C@H]3c3nn4ccc(Cl)c4c(=O)n3-c3ccccc3)c12 | inhibition at 1 µM [5]: 8.4%
9 | 40 | 19.1 | 3 | 47.7 | 2.8 | N#Cc1c[nH]c2ncnc(N3CCC[C@H]3c3nn4cccc4c(=O)n3-c3ccccc3)c12 | IC50 [8]: 19 nM; Drug metabolism [9]: Metabolite_Detected; Drug metabolism [10]: Metabolite_Detected
10 | 7 | – | 3 | – | 11.7 | CC(=O)c1c[nH]c2ncnc(N3CCC[C@H]3c3nn4ccc(Cl)c4c(=O)n3-c3cccc(F)c3)c12 | –
11 | – | 44.3 | – | 17.4 | – | O=c1c2cccn2nc([C@@H]2CCCN2c2ncnc3[nH]cnc23)n1-c1ccccc1 | –
